Data as given in PubChem BioAssay AID248 (DTP/NCI, 2004).
Several values for one entry are separate records, joined by “and”; a condition that tells them apart may be missing. Equal values may be shown once. Inconclusive results and toxic doses are left out.

System: L1210 leukemia ip in BDF1 mice, survival T/C
Assay: NCI In Vivo Anticancer Drug Screen. Data for tumor model L1210 Leukemia (intraperitoneal) in B6D2F1 (BDF1) mice
Conditions: endpoint: mean survival time, vehicle: saline, higher = longer survival
How it was run: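 Mice bearing the transplanted tumor received compound or vehicle. Survival of the treated group was divided by that of the vehicle-treated control group to give the ratio.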

## CSc1ncnc2c1ncn2C1OC(CO)C(O)C1O (stereo not drawn)
dose: 0.5 mg/kg/injection, schedule: Q#A X Z (ip)
  T/C: 120 % of control
dose: 0.82 mg/kg/injection, schedule: Q07DX003 (ip)
  T/C: 107 % of control
dose: 1.0 mg/kg/injection, schedule: Q01DX Z (ip)
  T/C: 113 % of control
dose: 1.25 mg/kg/injection, schedule: Q06HX068 (ip)
  T/C: 123 % of control
dose: 2.0 mg/kg/injection, schedule: Q01DX010 (ip)
  T/C: 109 % of control and 112 % of control
dose: 2.0 mg/kg/injection, schedule: Q01DX Z (ip)
  T/C: 123 % of control
dose: 3.25 mg/kg/injection, schedule: Q07DX003 (ip)
  T/C: 115 % of control
dose: 4.0 mg/kg/injection, schedule: Q01DX006 (iv)
  T/C: 109 % of control
dose: 4.0 mg/kg/injection, schedule: Q01DX010 (ip)
  T/C: 117 % of control
dose: 4.0 mg/kg/injection, schedule: Q01DX Z (im)
  T/C: 117 % of control
dose: 4.0 mg/kg/injection, schedule: Q01DX Z (sc)
  T/C: 102 % of control
dose: 5.0 mg/kg/injection, schedule: Q01DX010 (ip)
  T/C: 113 % of control and 122 % of control
dose: 5.0 mg/kg/injection, schedule: Q01DX017 (ip)
  T/C: 105 % of control
dose: 5.0 mg/kg/injection, schedule: Q#A X034 (ip)
  T/C: 118 % of control
dose: 6.5 mg/kg/injection, schedule: Q07DX003 (ip)
  T/C: 115 % of control and 121 % of control
dose: 6.65 mg/kg/injection, schedule: Q#A X Z (ip)
  T/C: 151 % of control
dose: 8.0 mg/kg/injection, schedule: Q01DX006 (iv)
  T/C: 105 % of control
dose: 8.0 mg/kg/injection, schedule: Q01DX010 (ip)
  T/C: 118 % of control and 124 % of control
dose: 8.0 mg/kg/injection, schedule: Q01DX Z (im)
  T/C: 115 % of control
dose: 8.0 mg/kg/injection, schedule: Q01DX Z (sc)
  T/C: 113 % of control
dose: 10.0 mg/kg/injection, schedule: Q12HX010 (ip)
  T/C: 119 % of control
dose: 10.0 mg/kg/injection, schedule: Q## X032 (ip)
  T/C: 119 % of control
dose: 12.5 mg/kg/injection, schedule: Q01DX010 (ip)
  T/C: 150 % of control
dose: 13.0 mg/kg/injection, schedule: Q## X004 (ip)
  T/C: 114 % of control
dose: 15.0 mg/kg/injection, schedule: Q01DX010 (ip)
  T/C: 152 % of control
dose: 15.0 mg/kg/injection, schedule: Q01DX Z (oral)
  T/C: 119 % of control
dose: 16.0 mg/kg/injection, schedule: Q01DX006 (iv)
  T/C: 112 % of control
dose: 16.0 mg/kg/injection, schedule: Q01DX Z (sc)
  T/C: 115 % of control
dose: 18.0 mg/kg/injection, schedule: Q01DX001 (ip)
  T/C: 104 % of control and 106 % of control
dose: 20.0 mg/kg/injection, schedule: Q01DX015 (ip)
  T/C: 153 % of control
dose: 20.0 mg/kg/injection, schedule: Q12HX006 (ip)
  T/C: 110 % of control
dose: 20.0 mg/kg/injection, schedule: Q12HX010 (ip)
  T/C: 120 % of control
dose: 20.0 mg/kg/injection, schedule: Q## X004 (ip)
  T/C: 121 % of control
dose: 20.0 mg/kg/injection, schedule: Q#A X034 (ip)
  T/C: 103 % of control
dose: 21.0 mg/kg/injection, schedule: Q## X015 (ip)
  T/C: 152 % of control
dose: 22.0 mg/kg/injection, schedule: Q## X032 (ip)
  T/C: 124 % of control
dose: 23.0 mg/kg/injection, schedule: Q03DX006 (ip)
  T/C: 113 % of control
dose: 25.0 mg/kg/injection, schedule: Q01DX001 (ip)
  T/C: 122 % of control and 124 % of control
dose: 25.0 mg/kg/injection, schedule: Q01DX005 (ip)
  T/C: 150 % of control
dose: 26.0 mg/kg/injection, schedule: Q01DX001 (ip)
  T/C: 103 % of control
dose: 27.0 mg/kg/injection, schedule: Q01DX001 (ip)
  T/C: 110 % of control and 120 % of control
dose: 30.0 mg/kg/injection, schedule: Q01DX003 (ip)
  T/C: 151 % of control
dose: 30.0 mg/kg/injection, schedule: Q01DX015 (ip)
  T/C: 153 % of control
dose: 30.0 mg/kg/injection, schedule: Q## X004 (ip)
  T/C: 121 % of control
dose: 31.0 mg/kg/injection, schedule: Q## X015 (ip)
  T/C: 152 % of control
dose: 32.0 mg/kg/injection, schedule: Q01DX006 (iv)
  T/C: 115 % of control and 117 % of control
dose: 32.0 mg/kg/injection, schedule: Q01DX Z (im)
  T/C: 153 % of control
dose: 32.0 mg/kg/injection, schedule: Q01DX Z (ip)
  T/C: 102 % of control
dose: 32.0 mg/kg/injection, schedule: Q01DX Z (sc)
  T/C: 151 % of control
dose: 32.0 mg/kg/injection, schedule: Q## X015 (ip)
  T/C: 103 % of control and 115 % of control
dose: 32.0 mg/kg/injection, schedule: Q## X032 (ip)
  T/C: 122 % of control
dose: 38.0 mg/kg/injection, schedule: Q01DX015 (ip)
  T/C: 100 % of control
dose: 39.5 mg/kg/injection, schedule: Q01DX015 (ip)
  T/C: 123 % of control
dose: 39.5 mg/kg/injection, schedule: Q## X015 (ip)
  T/C: 123 % of control
dose: 40.0 mg/kg/injection, schedule: Q01DX001 (ip)
  T/C: 107 % of control and 110 % of control and 112 % of control
dose: 40.0 mg/kg/injection, schedule: Q01DX017 (ip)
  T/C: 108 % of control
dose: 40.0 mg/kg/injection, schedule: Q12HX006 (ip)
  T/C: 120 % of control
dose: 45.0 mg/kg/injection, schedule: Q01DX015 (ip)
  T/C: 102 % of control and 110 % of control
dose: 45.0 mg/kg/injection, schedule: Q03DX006 (ip)
  T/C: 120 % of control
dose: 47.0 mg/kg/injection, schedule: Q## X015 (ip)
  T/C: 98 % of control and 103 % of control
dose: 50.0 mg/kg/injection, schedule: Q01DX001 (ip)
  T/C: 113 % of control and 122 % of control
dose: 50.0 mg/kg/injection, schedule: Q01DX009 (ip)
  T/C: 102 % of control
dose: 54.0 mg/kg/injection, schedule: Q01DX001 (ip)
  T/C: 120 % of control
dose: 60.0 mg/kg/injection, schedule: Q01DX001 (ip)
  T/C: 115 % of control
dose: 60.0 mg/kg/injection, schedule: Q01DX Z (oral)
  T/C: 119 % of control
dose: 61.0 mg/kg/injection, schedule: Q01DX001 (ip)
  T/C: 116 % of control
dose: 64.0 mg/kg/injection, schedule: Q01DX Z (im)
  T/C: 109 % of control
dose: 64.0 mg/kg/injection, schedule: Q01DX Z (sc)
  T/C: 102 % of control
dose: 80.0 mg/kg/injection, schedule: Q12HX010 (ip)
  T/C: 115 % of control
dose: 90.0 mg/kg/injection, schedule: Q01DX001 (ip)
  T/C: 121 % of control
dose: 90.0 mg/kg/injection, schedule: Q03DX006 (ip)
  T/C: 119 % of control
dose: 91.0 mg/kg/injection, schedule: Q01DX001 (ip)
  T/C: 113 % of control
dose: 100.0 mg/kg/injection, schedule: Q01DX001 (ip)
  T/C: 111 % of control
dose: 100.0 mg/kg/injection, schedule: Q01DX003 (ip)
  T/C: 117 % of control
dose: 100.0 mg/kg/injection, schedule: Q02DX008 (ip)
  T/C: 95 % of control
dose: 105.0 mg/kg/injection, schedule: Q07DX003 (ip)
  T/C: 151 % of control and 152 % of control
dose: 121.0 mg/kg/injection, schedule: Q01DX001 (ip)
  T/C: 119 % of control
dose: 138.0 mg/kg/injection, schedule: Q01DX001 (ip)
  T/C: 152 % of control
dose: 160.0 mg/kg/injection, schedule: Q12HX006 (ip)
  T/C: 113 % of control
dose: 180.0 mg/kg/injection, schedule: Q03DX006 (ip)
  T/C: 105 % of control
dose: 200.0 mg/kg/injection, schedule: Q01DX001 (ip)
  T/C: 103 % of control
dose: 256.0 mg/kg/injection, schedule: Q01DX006 (iv)
  T/C: 94 % of control
dose: 400.0 mg/kg/injection, schedule: Q01DX001 (ip)
  T/C: 100 % of control
